Structures are written as SMILES. Values after ≈ are worked out from the molar mass of the structure shown. Read-outs that look alike come from different tables or passages of the source.

Data set [1] has as its system TNF production from whole blood stimulated with LPS. The data set is described as follows: Whole blood assay: LPS-induced TNF-α production (L929 fibrosarcoma cell bioassay). The format is cell-based, horse. The protocol: (§1) A whole blood assay was used to assess the effects of rolipram and doramapimod on cytokine production from leukocytes (white blood cells) in response to bacterial lipopolysaccharide (endotoxin).
(§2) Blood samples (10 mL; sodium citrate anticoagulant) were obtained from the six normal horses, diluted 1:1 with RPMI 1640 cell culture medium and aliquoted into 15×1 mL aliquots. Serial dilutions of rolipram and doramapimod were made from 10^−2M stock solutions in phosphate-buffered saline and DMSO, respectively, and 10 μL added to […] give final concentrations ranging from 10^−10-10^−4 Molar. The samples were then incubated with 100 ng/mL purified bacterial lipopolysaccharide (endotoxin derived from E. Coli O55:B5; purified to remove DNA and protein contaminants). After incubation for 18 hours at 37° C. in a shaking incubator, samples were centrifuged at 300 g and supernatants stored at −80° C. for cytokine analysis.
The proinflammatory cytokine, TNF-α, was measured using a L929 fibrosarcoma cell bioassay. […] The yellow tetrazole dye, 3-(4,5-dimethylthiazol-2-yl)-2,5-diphenyltetrazolium bromide (MTT), is reduced to a purple formazan compound in living cells, which is then quantified using a colorimetric plate reader (absorbance read at 570 nm with reference wavelength of 650 nm). […]
(§3) The data are expressed as % inhibition of LPS-induced cytokine production at each of the drug concentrations. […]

The test system of data set [2] is IL-1 production from whole blood stimulated with LPS. The data set can be described thus: Whole blood assay: LPS-induced IL-1β production (ELISA). The format is cell-based, horse. The protocol: as §1, §2
Plasma IL-1β concentrations were measured using an equine-specific enzyme linked immunosorbent assay (ELISA; Horse IL-1β ELISA kit, Bethyl Laboratories, Montgomery, Tex., USA). […] The optical density (OD) values of samples were determined at 450 nm using an ELISA plate reader (BioTek Synergy H1) and concentrations determined using GENS Software (version 2.00.17).
as §3

Data set [3] is described as follows: Solubility / formulation for intravenous administration. The format is physicochemical.
Description: Solubility of the drugs was tested to determine their suitability for intravenous administration (this is the route of choice for the treatment of endotoxemia).
Where [4] appears, read: equine whole blood, LPS, 18 hours.

In general, IC50 refers to the midpoint of a concentration-inhibition curve. Regarding `COc1ccc(C2CNC(=O)C2)cc1OC1CCCC1` (stereo not drawn) [rolipram], the IC50 in data set [1] (Equus caballus, L929, equine whole blood diluted 1:1 with RPMI 1640, LPS, 18 hours at 37° C., read-out: IC50, inhibition of TNFa production) was 653 nM; in data set [2] (Equus caballus, equine whole blood diluted 1:1 with RPMI 1640, LPS, 18 hours at 37° C., read-out: IC50, inhibition of IL-1 production) it was 1020 nM. Besides, in data set [1] (setting [4]), the “inhibition of TNFa production at high concentrations” value is approximately 100%. For the same molecule, the “maximum inhibition of IL-1 production” value in data set [2] (setting [4]) was 39.5±7.1%. Moreover, the solubility in data set [3] (10% DMSO, aqueous with cosolvent or surfactant or cyclodextrin, read-out: soluble in 10% DMSO to) amounted to 1000 µg/mL (≈ 3630 µM); in data set [3] (water, read-out: water soluble to) it was 200 µg/mL (≈ 726 µM).
